Experimental data published in patent publication US7932270B2 (Cytokinetics, Inc., priority 2006, dated 2011).

Molecular target: T1, chicken gizzard smooth muscle myosin subfragment-1 chemically crosslinked to cardiac or skeletal actin (Gallus gallus, UniProt P10587)
T1 construct: chicken gizzard smooth muscle myosin subfragment-1; from tissue; host or cells: chicken gizzard
Experiment: Smooth muscle myosin ATPase dose response assay (pyruvate kinase/horseradish peroxidase/pyruvate oxidase-coupled, amplex red fluorescence)
Type: biochemical
Settings: read-out: IC50 Arithmetic Mean
Experimental: In Vitro Model of Dose Dependent Smooth Muscle Myosin ATPase Modulation
Screening assays were performed using a pyruvate kinase and lactate dehydrogenase-coupled ATPase assay containing the following reagents: Potassium PIPES (50 mM), MgCl2 (3 mM), KCl (100 mM), ATP (0.15 mM), DTT (1 mM), BSA (0.1 mg/ml), NADH (0.5 mM), PEP (1.5 mM), pyruvate kinase (4 U/ml), lactate dehydrogenase (8 U/ml), and antifoam (50 ppm) (concentrations expressed are final assay concentrations). The pH was adjusted to 6.80 at 22° C. by addition of potassium hydroxide. Lead optimization assays were performed with a more sensitive pyruvate kinase/horseradish peroxidase/pyruvate oxidase-coupled ATPase assay containing the following reagents: Potassium PIPES (12 mM), MgCl2 (2 mM), KCl (100 mM), ATP (0.15 mM), BSA (0.05 mg/ml), potassium phosphate (2 mM), amplex red (0.1 mM), PEP (0.1 mM), pyruvate kinase (4 U/ml), horseradish peroxidase (0.5 U/ml), pyruvate oxidase (0.5 U/ml), and antifoam (50 ppm) (concentrations expressed are final assay concentrations). The pH was adjusted to 7.00 at 22° C. by addition of potassium hydroxide.
The protein components specific to this assay are chicken gizzard smooth muscle myosin subfragment-1 that has been chemically crosslinked to either cardiac or skeletal actin using an excess of 1-Ethyl-3-[3-dimethylaminopropyl]carbodiimide hydrochloride and N-hydroxysuccinimide. The exact concentration of the crosslinked smooth muscle myosin in the assay is determined empirically, by titration to achieve a desired rate of ATP hydrolysis. The concentration varies between protein preparations due to variations in the fraction of active molecules in each preparation.
Compound dose response assays are performed by first preparing a dilution series of test compound, each with an assay mixture containing potassium PIPES, MgCl2, KCl, ATP, BSA, potassium phosphate, amplex red, PEP, crosslinked smooth muscle actomyosin (subfragment-1), antifoam, and water. The assay is started by adding an equal volume of solution containing potassium Pipes, MgCl2, KCl, BSA, potassium phosphate, pyruvate kinase, horseradish peroxidase, pyruvate oxidase, antifoam, and water. ATP hydrolysis is monitored by measuring the fluorescence of amplex red (excitation at 480 nm, emission at 615 nm). The resulting dose response curve is fit by the 4 parameter equation y=Bottom+((Top-Bottom)/(1+((IC50/X)^Hill))). The IC50 is defined as the concentration at which ATPase activity is midway between the top and bottom of the dose response curve.

T1 sequence (P02607 2-151): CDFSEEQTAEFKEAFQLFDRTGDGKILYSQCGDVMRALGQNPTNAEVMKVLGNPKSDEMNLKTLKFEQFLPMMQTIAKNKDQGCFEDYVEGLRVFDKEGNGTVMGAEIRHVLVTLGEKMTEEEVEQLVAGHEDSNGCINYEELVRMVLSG
T1 sequence (P10587 84-789): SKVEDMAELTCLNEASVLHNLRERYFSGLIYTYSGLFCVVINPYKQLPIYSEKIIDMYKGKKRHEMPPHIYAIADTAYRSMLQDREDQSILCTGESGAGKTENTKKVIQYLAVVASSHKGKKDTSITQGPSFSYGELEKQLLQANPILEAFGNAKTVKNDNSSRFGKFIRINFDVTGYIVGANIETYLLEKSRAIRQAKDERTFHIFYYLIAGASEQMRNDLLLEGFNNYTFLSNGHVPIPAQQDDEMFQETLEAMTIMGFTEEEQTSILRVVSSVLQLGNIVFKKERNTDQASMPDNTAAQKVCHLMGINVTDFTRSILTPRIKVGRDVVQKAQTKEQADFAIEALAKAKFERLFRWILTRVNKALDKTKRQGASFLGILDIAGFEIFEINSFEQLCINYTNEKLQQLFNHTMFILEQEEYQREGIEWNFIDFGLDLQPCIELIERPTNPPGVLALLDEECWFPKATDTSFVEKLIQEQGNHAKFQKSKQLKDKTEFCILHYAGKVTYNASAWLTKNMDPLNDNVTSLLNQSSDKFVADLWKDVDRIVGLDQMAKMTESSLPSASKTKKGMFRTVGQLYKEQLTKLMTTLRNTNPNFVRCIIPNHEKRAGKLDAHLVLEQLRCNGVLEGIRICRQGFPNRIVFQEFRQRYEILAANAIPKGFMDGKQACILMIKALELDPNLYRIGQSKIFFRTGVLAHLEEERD

Row | SMILES | IC50 [nM]
1 | C[C@@H](CO)CNC(=O)c1cc(F)c(-c2cn[nH]c2)nc1NCCc1cccc(F)c1 [N-((2R)-3-hydroxy-2-methylpropyl)(5-fluoro-2-{[2-(3-fluorophenyl)ethyl]amino}-6-pyrazol-4-yl(3-pyridyl))carboxamide] | 59
2 | O=C(NCC1CCNCC1)c1ccc(-c2ccccc2)nc1NCCc1ccccn1 [{6-phenyl-2-[(2-(2-pyridyl)ethyl)amino](3-pyridyl)}-N-(4-piperidylmethyl)carboxamide] | 43700
3 | CN(C)c1cccc(-c2ccc(C(=O)NCc3cccnc3)c(NCCc3ccccn3)n2)c1 [{6-[3-(dimethylamino)phenyl]-2-[(2-(2-pyridyl)ethyl)amino](3-pyridyl)}-N-(3-pyridylmethyl)carboxamide] | 12400
4 | N#Cc1ccccc1-c1ccc(C(=O)NCCCC(N)=O)c(NCCc2cccc(F)c2)n1 [N-(3-carbamoylpropyl)(6-(2-cyanophenyl)-2-{[2-(3-fluorophenyl)ethyl]amino}(3-pyridyl))carboxamide] | 185
5 | COC(=O)[C@H](N)CNC(=O)c1ccc(-c2ccccc2C#N)nc1NCCc1cccc(F)c1 [methyl (2R)-2-amino-3-[(6-(2-cyanophenyl)-2-{[2-(3-fluorophenyl)ethyl]amino}(3-pyridyl))carbonylamino]propanoate] | 2290
6 | CC[C@H](CNC(=O)c1cc(F)c(-c2cnn(C)c2)nc1NCCc1cccc(F)c1)NC(=O)CNC(=O)OC(C)(C)C [N-((1R)-1-{[(5-fluoro-2-{[2-(3-fluorophenyl)ethyl]amino}-6-(1-methylpyrazol-4-yl)(3-pyridyl))carbonylamino]methyl}propyl)-2-[(tert-butoxy)carbonylamino]acetamide] | 3040
7 | CC(C)(C)OC(=O)NCCCN1CC(=O)N[C@H](CNC(=O)c2ccc(-c3ccccc3C#N)nc2NCCc2cccc(F)c2)C1 [N-[((2R)-4-{3-[(tert-butoxy)carbonylamino]propyl}-6-oxopiperazin-2-yl)methyl](6-(2-cyanophenyl)-2-{[2-(3-fluorophenyl)ethyl]amino}(3-pyridyl))carboxamide] | 9540
8 | CC(C)(CNC(=O)c1ccc(-c2ccccc2C#N)nc1NCCc1cccc(F)c1)NS(C)(=O)=O [(6-(2-cyanophenyl)-2-{[2-(3-fluorophenyl)ethyl]amino}(3-pyridyl))-N-{2-methyl-2-[(methylsulfonyl)amino]propyl}carboxamide] | 1470
9 | NCc1cccc(CNC(=O)c2cc(Br)c(-c3ccccc3)nc2NCCc2cccc(F)c2)n1 [N-{[6-(aminomethyl)(2-pyridyl)]methyl}(5-bromo-2-{[2-(3-fluorophenyl)ethyl]amino}-6-phenyl(3-pyridyl))carboxamide] | 604
10 | Cn1cc(-c2nc(NCCc3cccc(F)c3)c(C(=O)NC[C@H]3CCN3C(=O)CO)cc2F)cn1 [N-{[(2R)-1-(2-hydroxyacetyl)azetidin-2-yl]methyl}(5-fluoro-2-{[2-(3-fluorophenyl)ethyl]amino}-6-(1-methylpyrazol-4-yl)(3-pyridyl))carboxamide] | 47
11 | Cn1cc(-c2nc(NCCc3cccc(F)c3)c(C(=O)NC[C@H]3CCC(=O)N3CCCN)cc2F)cn1 [N-{[(2R)-1-(3-aminopropyl)-5-oxopyrrolidin-2-yl]methyl}(5-fluoro-2-{[2-(3-fluorophenyl)ethyl]amino}-6-(1-methylpyrazol-4-yl)(3-pyridyl))carboxamide] | 79
12 | N#Cc1ccccc1-c1ccc(C(=O)NC[C@H]2CCCN2C(=O)[C@@H](N)CN)c(NCCc2cccc(F)c2)n1 [N-{[(2R)-1-((2S)-2,3-diaminopropanoyl)pyrrolidin-2-yl]methyl}(6-(2-cyanophenyl)-2-{[2-(3-fluorophenyl)ethyl]amino}(3-pyridyl))carboxamide] | 59
13 | Cn1cc(-c2ccc(C(=O)NCc3cccnc3)c(NCCc3ccccn3)n2)cn1 [{6-(1-methylpyrazol-4-yl)-2-[(2-(2-pyridyl)ethyl)amino](3-pyridyl)}-N-(3-pyridylmethyl)carboxamide] | 2530
14 | COC(=O)N1CCCC[C@@H]1CNC(=O)c1ccc(-c2ccccc2C#N)nc1NCCc1cccc(F)c1 [methyl (2R)-2-{[(6-(2-cyanophenyl)-2-{[2-(3-fluorophenyl)ethyl]amino}(3-pyridyl))carbonylamino]methyl}piperidinecarboxylate] | 4280
15 | Cc1cc(C(=O)NC[C@H]2CCC(=O)N2CCCNC(=O)OC(C)(C)C)c(NCCc2cccc(F)c2)nc1-c1cnn(C)c1 [N-[((2R)-1-{3-[(tert-butoxy)carbonylamino]propyl}-5-oxopyrrolidin-2-yl)methyl](2-{[2-(3-fluorophenyl)ethyl]amino}-5-methyl-6-(1-methylpyrazol-4-yl)(3-pyridyl))carboxamide] | 1460
16 | N#Cc1ccccc1-c1ccc(C(=O)NC[C@H]2CCCN2)c(NCCc2cccc(F)c2)n1 [N-[((2R)pyrrolidin-2-yl)methyl](6-(2-cyanophenyl)-2-{[2-(3-fluorophenyl)ethyl]amino}(3-pyridyl))carboxamide] | 174
17 | N#Cc1ccccc1-c1ccc(C(=O)NCCNS(=O)(=O)CCN)c(NCCc2cccc(F)c2)n1 [N-(2-{[(2-aminoethyl)sulfonyl]amino}ethyl)(6-(2-cyanophenyl)-2-{[2-(3-fluorophenyl)ethyl]amino}(3-pyridyl))carboxamide] | 1550
18 | N#Cc1ccccc1-c1ccc(C(=O)NCC2CCCN2CCN)c(NCCc2cccc(F)c2)n1 (stereo not drawn) [N-{[1-(2-aminoethyl)pyrrolidin-2-yl]methyl}(6-(2-cyanophenyl)-2-{[2-(3-fluorophenyl)ethyl]amino}(3-pyridyl))carboxamide] | 758
19 | CNC(=O)[C@H](N)CCNC(=O)c1ccc(-c2ccccc2C#N)nc1NCCc1cccc(F)c1 [(2R)-2-amino-4-[(6-(2-cyanophenyl)-2-{[2-(3-fluorophenyl)ethyl]amino}(3-pyridyl))carbonylamino]-N-methylbutanamide] | 12900
20 | N#Cc1ccccc1-c1ccc(C(=O)NCc2cnccc2CN)c(NCCc2cccc(F)c2)n1 [N-{[4-(aminomethyl)(3-pyridyl)]methyl}(6-(2-cyanophenyl)-2-{[2-(3-fluorophenyl)ethyl]amino}(3-pyridyl))carboxamide] | 401
21 | COC(=O)CCC(=O)N1CCC[C@@H]1CNC(=O)c1ccc(-c2ccccc2C#N)nc1NCCc1cccc(F)c1 [methyl 4-((2R)-2-{[(6-(2-cyanophenyl)-2-{[2-(3-fluorophenyl)ethyl]amino}(3-pyridyl))carbonylamino]methyl}pyrrolidinyl)-4-oxobutanoate] | 657
22 | COc1ccc(Cl)c(-c2ccc(C(=O)NCc3cccnc3)c(NCCc3cccc(F)c3)n2)c1 [(6-(2-chloro-5-methoxyphenyl)-2-{[2-(3-fluorophenyl)ethyl]amino}(3-pyridyl))-N-(3-pyridylmethyl)carboxamide] | 2000
23 | C[C@H](CNC(=O)c1ccc(-c2ccccc2C#N)nc1NCCc1cccc(F)c1)N(C)C(=O)CCCN | 710
24 | O=C(NCCc1cccnc1)c1ccc(-c2ccccc2)nc1NCCc1ccccc1 [{6-phenyl-2-[(2-phenylethyl)amino](3-pyridyl)}-N-(2-(3-pyridyl)ethyl)carboxamide] | 3090
25 | N#Cc1ccccc1-c1ccc(C(=O)NCC2CCCC(=O)N2)c(NCCc2cccc(F)c2)n1 (stereo not drawn) [(6-(2-cyanophenyl)-2-{[2-(3-fluorophenyl)ethyl]amino}(3-pyridyl))-N-[(6-oxo(2-piperidyl))methyl]carboxamide] | 29
26 | O=C(NCc1cccnc1)c1ccc(-c2nnn[nH]2)nc1NCCc1cccc(F)c1 [(6-(1H-1,2,3,4-tetraazol-5-yl)-2-{[2-(3-fluorophenyl)ethyl]amino}(3-pyridyl))-N-(3-pyridylmethyl)carboxamide] | 78100
27 | C[C@H](CNC(=O)c1cc(F)c(-c2cnn(C)c2)nc1NCCc1cccc(F)c1)NC(=O)[C@H](C)N | 131
28 | N#Cc1ccccc1-c1ccc(C(=O)NC[C@H]2O[C@@H](O)[C@H](O)[C@@H](O)[C@@H]2O)c(NCCc2cccc(F)c2)n1 | 5540
29 | N#Cc1ccccc1-c1ccc(C(=O)NC[C@@H]2CCCN2C(=O)CCCN)c(NCCc2cccc(F)c2)n1 [N-{[(2S)-1-(4-aminobutanoyl)pyrrolidin-2-yl]methyl}(6-(2-cyanophenyl)-2-{[2-(3-fluorophenyl)ethyl]amino}(3-pyridyl))carboxamide] | 1270
30 | C[C@H](CNC(=O)c1cc(F)c(-c2cnn(C)c2)nc1NCCc1cccc(F)c1)NC(=O)CCCN | 116
